{"source": "patent US20250235437A1", "about": "“PROTEOLYSIS TARGETING CHIMERA (PROTAC) MOLECULE FOR DEGRADATION OF ENL AND CANCER THERAPY” (Baylor College of Medicine, priority 2022, published 2025)", "key": {"ENL [1]": {"target": "T1, ENL (Homo sapiens, UniProt Q03111)", "T1 construct": "tested whether the compounds degrade ENL and AF9 in MV4;11 leukemia cells; endogenous in cells; host or cells: MV4;11; Molm-13", "T1 sequence (Q03111 1-559)": "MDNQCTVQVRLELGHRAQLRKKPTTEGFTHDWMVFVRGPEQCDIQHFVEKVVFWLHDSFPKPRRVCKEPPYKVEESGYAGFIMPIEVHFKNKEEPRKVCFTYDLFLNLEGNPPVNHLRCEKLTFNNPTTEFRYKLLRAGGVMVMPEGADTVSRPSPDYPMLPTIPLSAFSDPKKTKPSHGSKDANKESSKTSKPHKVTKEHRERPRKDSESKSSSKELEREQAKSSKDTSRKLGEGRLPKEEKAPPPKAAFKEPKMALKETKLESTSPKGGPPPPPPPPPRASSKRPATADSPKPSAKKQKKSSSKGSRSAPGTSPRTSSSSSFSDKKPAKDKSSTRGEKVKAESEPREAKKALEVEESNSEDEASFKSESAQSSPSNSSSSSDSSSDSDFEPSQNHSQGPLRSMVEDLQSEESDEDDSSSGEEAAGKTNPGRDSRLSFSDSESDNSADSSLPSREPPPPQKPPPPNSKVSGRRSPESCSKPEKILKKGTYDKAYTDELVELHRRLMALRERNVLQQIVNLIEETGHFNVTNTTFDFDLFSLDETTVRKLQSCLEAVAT", "experiment": "ChIP-qPCR, ENL at Myc and HoxA9 gene promoters", "format": "cell-based", "settings": "500 nM", "excerpt": "(§1) Chromatin immunoprecipitation (ChIP) followed by qPCR was used to further probe the activity of compound 1 in the gene promoters of Myc and HoxA9, two characteristic MLL1 target genes."}, "ENL [2]": {"target": "T1, ENL", "experiment": "ENL degradation in MV4;11 cells (Western blot)", "format": "cell-based", "settings": "500 nM"}, "Molm-13 cells [3]": {"tested_on": "Molm-13 cells", "settings": "Molm13 cells, footnote b: reported in Li, et al. J Hematol Oncol, 2022; read-out: Anti-proliferative activity EC50, Molm13; cited from earlier work"}, "Molm-13 cells [4]": {"tested_on": "Molm-13 cells", "experiment": "Gene profiling and GSEA in Molm-13 cells", "format": "cell-based", "settings": "500 nM", "method": "Gene profiling was performed to find how compound 1 affects global gene transcriptome. mRNAs from the control and compound 1 (500 nM) treated Molm-13 cells were extracted, purified and sequenced. Bioinformatic analysis was performed to find differentially expressed genes between the treated and control cells, which were used for gene set enrichment analysis (GSEA). […] These clearly indicate that treatment with compound 1 recapitulated ENL knockout with similar patterns of gene expression changes."}, "H3K79 methylation": {"tested_on": "H3K79 methylation", "experiment": "Nuclear H3K79 methylation in MV4;11 cells, 4 days", "format": "cell-based", "excerpt": "Applicant further investigated how compound 1 affects ENL, AF9 and other proteins of SEC in the cytoplasmic and nuclear compartments, the latter of which are more relevant to the functions of these transcription cofactors. […] Upon treatment of MV4;11 cells with these compounds for 4 days, cytoplasmic and nuclear proteins were separated and subjected to SDS-PAGE/Western blot."}, "HoxA9, Meis1 and Myc": {"tested_on": "HoxA9, Meis1 and Myc", "experiment": "Expression of HoxA9, Meis1 and Myc in Molm-13 cells", "format": "cell-based", "settings": "4 days", "method": "Previous studies show ENL is required for expression of MLL1-target genes in MLL1-r leukemia. How compound 1-mediated ENL degradation changes expression of HoxA9, Meis1 and Myc, three characteristic genes in MLL1-r leukemia, was examined. Molm-13 cells were treated with compound 1 for 4 days, after which the RNAs were extracted and analyzed."}, "Molm-13 leukemia": {"tested_on": "Molm-13 leukemia", "experiment": "Subcutaneous Molm-13 leukemia xenograft in NOD-SCID mice", "format": "in vivo", "method": "In vivo antitumor activity of compound 1 was evaluated in a commonly used mouse model of Molm-13 leukemia. First, in vivo toxicity was assessed in C57BL/6 mice. […] Next, 10^6 Molm-13 cells were injected subcutaneously into NOD-SCID mice, which developed palpable tumors in ˜1 week and grew rapidly."}, "Molm-13 cells [5]": {"tested_on": "Molm-13 cells", "experiment": "Apoptosis of Molm-13 cells", "format": "cell-based", "method": "Treatment of Molm-13 cells with compound 1 for 7 days at 1 and 3 μM caused significant apoptosis of 22.7% and 67.6%, respectively (FIG. 6C)."}, "Hela cell": {"tested_on": "Hela cell", "experiment": "Anti-proliferative activity, Hela cells", "format": "cell-based", "settings": "Hela (cervical) cells; read-out: EC50, proliferation"}, "HoxA11 and HoxA13": {"tested_on": "HoxA11 and HoxA13", "experiment": "mENL-driven HoxA11 and HoxA13 expression in HEK293T cells", "format": "cell-based", "design": "dose or concentration left out as unconfirmed", "settings": "24 h incubation", "excerpt": "Next, Applicant investigated how mENL degradation affect expression of HoxA11 and HoxA13 in this cell model."}, "[6]": {"tested_on": "AF9, AFF4, cyclin-T1 and H3K79me2", "experiment": "ChIP-qPCR, AF9, AFF4, cyclin-T1 and H3K79me2 at Myc and HoxA9 gene promoters", "format": "cell-based", "settings": "500 nM", "excerpt": "as §1"}, "MV4;11 cells": {"tested_on": "MV4;11 cells", "settings": "footnote b: reported in Li, et al. J Hematol Oncol, 2022, read-out: Anti-proliferative activity EC50, MV4; cited from earlier work"}}}
{"smiles": "C[C@H]1CCCN1Cc1nc2cc(NC(=O)c3ccc4c(cnn4CCCCCCCCNc4cccc5c4C(=O)N(C4CCC(=O)NC4=O)C5=O)c3)ccc2[nH]1", "note": "(stereo partly drawn) [Compound 1]", "values": [{"measurement": "ENL levels at Myc and HoxA9 gene promoters", "setting": "ENL [1]", "value": "significantly reduced"}, {"measurement": "time at which significant ENL degradation can be detected", "setting": "ENL [2]", "value": 2, "unit": "h"}, {"measurement": "time to ENL depletion", "setting": "ENL [2]", "value": "≤ 24", "unit": "h"}, {"measurement": "EC50", "setting": "Molm-13 cells [3]", "value": 320, "unit": "nM"}, {"measurement": "normalized enrichment score (NES), gene set upregulated upon ENL knockout", "setting": "Molm-13 cells [4]; 4 days, GSEA panel 1", "value": 7.46}, {"measurement": "normalized enrichment score (NES), gene set downregulated upon ENL knockout", "setting": "Molm-13 cells [4]; 4 days, GSEA panel 2", "value": "−4.26"}, {"measurement": "transcription of Myc-target genes", "setting": "Molm-13 cells [4]; GSEA panel 7", "value": "significantly downregulated"}, {"measurement": "gene sets regulated by knockdown of MLL-AF9 or -ENL", "setting": "Molm-13 cells [4]; GSEA panels 3 and 4", "value": "significantly up- and down-regulated"}, {"measurement": "expression of HoxA9-regulated genes", "setting": "Molm-13 cells [4]; GSEA panels 5 and 6", "value": "reversed expression patterns"}, {"measurement": "nuclear levels of H3K79 methylation", "setting": "H3K79 methylation", "value": "not consistently affected"}, {"measurement": "expression of HoxA9, Meis1 and Myc", "setting": "HoxA9, Meis1 and Myc", "value": "significantly inhibit expression of these three genes in a generally dose-dependent manner"}, {"measurement": "body weight", "setting": "Molm-13 leukemia; 30 mg/kg/day for Day 3-15", "value": "did not cause significant weight losses"}, {"measurement": "tumor growth", "setting": "Molm-13 leukemia; 30 mg/kg/day for Day 3-15", "value": "significantly inhibited tumor growth"}, {"measurement": "animal survival", "setting": "Molm-13 leukemia; 30 mg/kg/day for Day 3-15, p<0.01", "value": "prolonged animal survivals"}, {"measurement": "apoptosis", "setting": "Molm-13 cells [5]; 0.5 μM or shorter incubation (e.g. 4 days)", "value": "< 5", "unit": "%"}, {"measurement": "apoptosis", "setting": "Molm-13 cells [5]; 7 days, 1 μM", "value": 22.7, "unit": "%"}, {"measurement": "apoptosis", "setting": "Molm-13 cells [5]; 7 days, 3 μM", "value": 67.6, "unit": "%"}, {"measurement": "EC50", "setting": "Hela cell", "value": "> 50000", "unit": "nM"}, {"measurement": "overexpression of HoxA11 and HoxA13", "setting": "HoxA11 and HoxA13", "value": "significantly inhibited overexpression of HoxA11 and HoxA13"}, {"measurement": "AF9, AFF4, cyclin-T1 and H3K79me2 at Myc and HoxA9 gene loci", "setting": "[6]", "value": "did not significantly lower down"}, {"measurement": "EC50", "setting": "MV4;11 cells", "value": 570, "unit": "nM"}]}
